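Grown in 96-well plates, cells were treated for 48 hours with each compound at five concentrations. Insufficient inhibition: endpoint recorded as highest concentration tested. GI50 = concentration required for 50% inhibition of growth.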 Calls of active or inactive are those of the source. Rule as the data show it: active = GI50 up to about 1.1 µM and inactive = higher.
Assays:
Assay in all cases: DTP human tumour cell line panel, 48 h
A498 = test system: A498
A549 = test system: A549
CAKI-1 = test system: CAKI-1
HOP-92 = test system: HOP-92
NCI-H23 = test system: NCI-H23
NCI-H522 = test system: NCI-H522
OVCAR-3 = test system: OVCAR-3
OVCAR-4 = test system: OVCAR-4
RXF 393 = test system: RXF 393
SF-539 = test system: SF-539
SNB-19 = test system: SNB-19
TK-10 = test system: TK-10
U-251 = test system: U-251
UACC-257 = test system: UACC-257
HCT-116 = test system: HCT-116
SR = test system: SR

Measured: GI50

CCOc1ccccc1NC(=O)C1=C(C)NC(C)=C(C(=O)Nc2ccccc2OCC)C1c1ccc2c(c1)OCO2
inactive: A498 34.9 µM | A549 28.2 µM | CAKI-1 21.5 µM | HOP-92 7.36 µM | NCI-H23 23.9 µM | NCI-H522 9.89 µM | OVCAR-3 17 µM | OVCAR-4 20.8 µM | RXF 393 16.8 µM | SF-539 25.5 µM | SNB-19 95.9 µM | TK-10 76.6 µM | U-251 47.5 µM | UACC-257 22 µM

O=C(N[C@H]1CC2(C=C(I)C(=O)C(I)=C2)OC1=O)OCc1ccccc1
inactive: A498 > 100 µM | A549 42.8 µM | CAKI-1 20.4 µM | HCT-116 15.9 µM | NCI-H23 17.8 µM | NCI-H522 13.4 µM | OVCAR-3 17.3 µM | OVCAR-4 18.4 µM | RXF 393 15.2 µM | SF-539 17.7 µM | SNB-19 21.8 µM | TK-10 17.7 µM | U-251 17.3 µM | UACC-257 16.4 µM

Cn1nc(-c2ccccc2)c(C(=O)/C=C/c2ccc(F)cc2)c(N2CCOCC2)c1=O
inactive: A498 17.7 µM | A549 17.4 µM | CAKI-1 > 10 µM | HCT-116 4.21 µM | HOP-92 15.2 µM | NCI-H23 > 10 µM | NCI-H522 14.5 µM | RXF 393 13.6 µM | SF-539 17.3 µM | SNB-19 13.7 µM | TK-10 28.6 µM | U-251 16.7 µM

Cc1ccc(C(=O)/C=C2\Nc3c(c(=O)oc4ccccc34)N=C2NC23CC4CC(CC(C4)C2)C3)cc1
inactive: A549 > 100 µM | CAKI-1 > 100 µM | HCT-116 > 100 µM | HOP-92 49.2 µM | NCI-H23 > 100 µM | NCI-H522 > 100 µM | OVCAR-3 > 100 µM | RXF 393 > 100 µM | SF-539 > 100 µM | SNB-19 > 100 µM | SR > 100 µM | TK-10 > 100 µM | U-251 > 100 µM | UACC-257 > 100 µM

CN(C)CCNC(=O)c1ccc(Cl)c2c(Nc3ccc(S(=O)(=O)N=C(N)N)cc3)c3ccccc3nc12
active: NCI-H522 0.603 µM | SR 0.54 µM
inactive: A549 3.33 µM | HCT-116 3.9 µM | NCI-H23 4.68 µM | OVCAR-3 12.4 µM | OVCAR-4 1.87 µM | RXF 393 4.66 µM | SF-539 3.81 µM | SNB-19 1.85 µM | TK-10 12.6 µM | U-251 3.29 µM

Cc1c(C(=O)O)oc2ccc([N+](=O)[O-])cc12
inactive: A498 > 100 µM | A549 > 100 µM | CAKI-1 > 100 µM | HCT-116 > 100 µM | HOP-92 72.4 µM | NCI-H23 > 100 µM | NCI-H522 > 100 µM | OVCAR-3 > 100 µM | OVCAR-4 > 100 µM | SF-539 > 100 µM | SNB-19 > 100 µM | TK-10 > 100 µM | U-251 > 100 µM | UACC-257 > 100 µM

C1=C2/CC[C@H](Sc3ccccc3)[C@H]2C2(CCCCC/1)OCCO2
inactive: A549 51.8 µM | CAKI-1 20.2 µM | HCT-116 39.8 µM | HOP-92 18.6 µM | NCI-H23 34.8 µM | NCI-H522 17.9 µM | OVCAR-3 27.7 µM | SF-539 40.4 µM | SNB-19 36.9 µM | SR 42.9 µM | TK-10 > 100 µM | U-251 21.8 µM | UACC-257 20.2 µM

CN1C(=O)CCC2[C@@H]3CC=C4C[C@@H](O)CC[C@]4(C)C3CC[C@@]21C (some centres not stated)
inactive: A498 > 100 µM | A549 46.1 µM | CAKI-1 50.2 µM | HCT-116 33.5 µM | NCI-H23 25.4 µM | OVCAR-3 49.5 µM | OVCAR-4 33.4 µM | RXF 393 18.3 µM | SF-539 45.9 µM | TK-10 > 100 µM | U-251 > 100 µM | UACC-257 20.3 µM

NC1=NC(=O)/C(=C/c2ccccc2[N+](=O)[O-])C(N)=N1
inactive: A549 > 100 µM | CAKI-1 > 100 µM | HCT-116 > 100 µM | HOP-92 > 100 µM | NCI-H23 > 100 µM | NCI-H522 > 100 µM | OVCAR-3 > 100 µM | OVCAR-4 > 100 µM | RXF 393 > 100 µM | SF-539 > 100 µM | SNB-19 > 100 µM | SR > 100 µM | TK-10 > 100 µM | U-251 > 100 µM | UACC-257 > 100 µM

Cc1cccc(NC(=O)CC(=O)N2N=C(N(CCC#N)c3ccc(Cl)cc3)CC2c2ccccc2)c1 (configuration not stated)
inactive: A549 > 100 µM | CAKI-1 > 100 µM | HCT-116 > 100 µM | HOP-92 > 100 µM | NCI-H23 > 100 µM | NCI-H522 > 100 µM | OVCAR-3 > 100 µM | OVCAR-4 > 100 µM | RXF 393 > 100 µM | SF-539 > 100 µM | SNB-19 > 100 µM | SR > 100 µM | TK-10 > 100 µM | U-251 > 100 µM | UACC-257 > 100 µM

O=c1c2c([nH]c3cc4c(cc13)OCO4)-c1ccccc1C2
inactive: A549 27.1 µM | CAKI-1 39 µM | HCT-116 15.6 µM | HOP-92 18.3 µM | NCI-H23 26.1 µM | NCI-H522 22.4 µM | OVCAR-3 22.5 µM | OVCAR-4 33.3 µM | RXF 393 16.4 µM | SF-539 18.1 µM | SNB-19 37.1 µM | SR 18.1 µM | TK-10 10.7 µM | U-251 17.2 µM

CC1(C)C(=O)N(CCCCCCN2C(=O)C(C)(C)c3ccccc32)c2ccccc21
inactive: A498 > 100 µM | A549 43.4 µM | CAKI-1 62.4 µM | HCT-116 21 µM | HOP-92 42.8 µM | NCI-H23 42.6 µM | OVCAR-3 28 µM | OVCAR-4 23.4 µM | SF-539 > 100 µM | SNB-19 68.5 µM | TK-10 58.3 µM | U-251 36.6 µM | UACC-257 21.8 µM

COC(=O)N1C=CC2=C(C)C3Nc4ccccc4C3C(C)=C2C1 (configuration not stated)
inactive: A498 16.2 µM | A549 1.69 µM | CAKI-1 5.35 µM | HOP-92 2.09 µM | NCI-H23 4.54 µM | NCI-H522 1.49 µM | OVCAR-4 1.34 µM | SF-539 4.2 µM | SNB-19 2.97 µM | TK-10 1.66 µM | U-251 3.1 µM | UACC-257 3.21 µM
active: HCT-116 0.643 µM | OVCAR-3 0.923 µM

CCOc1ccccc1NC(=O)CC1SC(Nc2ccc([N+](=O)[O-])cc2)=NC1=O (configuration not stated)
inactive: A549 18.5 µM | HCT-116 15.3 µM | HOP-92 10.2 µM | NCI-H23 16.6 µM | OVCAR-3 14.5 µM | OVCAR-4 11.6 µM | RXF 393 18.1 µM | SNB-19 29.3 µM | TK-10 25.4 µM | U-251 14.3 µM | UACC-257 17.3 µM

Source: ChEMBL document CHEMBL1201862, “PubChem BioAssay data set” (2004)
